Data on 16 compounds can be found in patent publication US20230219965A1 (KSQ Therapeutics, Inc., priority 2020, published 2023).

Broadly, the IC50 is the concentration that gives 50% inhibition. A word on the half-life: it is the time needed for the level to fall by half in the phase considered. Low values mean rapid decline, high ones slow decline. Usually solubility stands for the concentration that dissolves in the medium under given conditions.

In one data set the target is USP1/UAF1 enzyme (Homo sapiens, UniProt O94782). As to the kind of experiment: USP1/UAF1 deubiquitination assay (ubiquitin-rhodamine 110 substrate). Format: biochemical. To be noted: read-out: USP1 IC50 (Ub-Rho). The essentials:
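0.05 nM USP1/UAF1 was preincubated 10 min with compounds (dose response from 10 μM) in 50 mM Tris-HCl pH 7.8, 0.5 mM EDTA, 0.01% BSA, 1 mM DTT, 0.01% Tween-20. 150 nM ubiquitin-rhodamine 110 started the reaction, read kinetically 30 min at Ex480/Em540; IC50 by four-parameter fit versus no-enzyme and DMSO controls.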

Data set [1] concerns Ub-PCNA levels in the nucleus of ES2 cells (USP1 activity). As to the kind of experiment: ES2 Ub-PCNA immunofluorescence (IF) assay. To be noted: Homo sapiens, ES-2; ES2 cells, 3 hours, Ub-PCNA immunofluorescence; read-out: USP1 IC50 (Ub-PCNA). The format is cell-based. On the procedure:
USP1 is a deubiquitinating enzyme that removes ubiquitin from mono-ubiquitinated Proliferating Cell Nuclear Antigen (Ub-PCNA). The levels of Ub-PCNA in the nucleus of cells can be used to assess the activity of USP1. An immunofluorescence assay can be established to monitor Ub-PCNA levels in the ovarian cancer cell line, ES2.
An assay can be performed by first plating 5000 ES2 cells per well in black 96 well plates (Corning #3904) and then incubating overnight at 37° C. and 5% CO2. Compounds, resuspended in DMSO, can be added to the cells, to a final DMSO concentration of 0.3%. Plates can be incubated at 37° C. and 5% CO2 for 3 hours.
Cells can be then fixed and stained by first removing the media from each plate and fixing the cells with −20° C. methanol for 5 minutes at room temperature. Fixation plates can be washed with Tris buffered saline with tween (Boston Bioproducts #IBB-855) 5 times for 5 minutes each. Plates can be blocked for 1 hour with 50 μl of Odyssey blocking buffer (Licor #327-50000) at room temperature with rocking. Block can be removed from all wells and 50 μl of primary antibody was added to each well. Ub-PCNA ab (Cell Signaling Technology #13439) can be diluted at 1:400 in Odyssey blocking buffer. Plates can be sealed and incubated overnight at 4° C. Primary antibodies can be removed from the plates and plates can be washed with Tris buffered saline with tween 5 times for 5 minutes. Plates can be stained for 1 hour at room temperature with rocking with 50 μl of secondary antibodies diluted 1:10,000 in Odyssey blocking buffer at room temperature (anti-rabbit Alexa 488). Antibodies can be removed from the plates and plates can be washed with Tris buffered saline with tween 3 times for 5 minutes. Plates can be washed once with DAPI (Chemometec #910-3012) stain diluted 1:5000 (Stock solution of 500 μg/ml) in tris buffered saline with tween for 5 minutes. DAPI stain can be removed and plates can be washed one additional time for 5 minutes with tris buffered saline with tween. Wash can be removed from the plate and 100 μl tris buffered saline with tween can be added back to all wells, Plates can be sealed with Foil seals or black plate seals and plates can be stored at 4° C. until they can be imaged.
Imaging of the plates can be performed by first locating the nuclei using the DAPI stain. A mask can be created by drawing a circle slightly smaller than each nucleus. Ub-PCNA intensities can be measured for each individual nucleus counted. A histogram of all Ub-PCNA nuclear intensities measured in untreated wells can be generated and a 95% cutoff can be established. This 95% cutoff can be used to determine the number of Positive cells that have Ub-PCNA values higher than the 95% cutoff. The number of positive cells can be expressed as a percentage by dividing by the total number of cells in the well. This percent positive value can be used to graph all data and to determine AC50 values.
USP1 is a deubiquitinating enzyme that removes ubiquitin from mono-ubiquitinated
Proliferating Cell Nuclear Antigen (Ub-PCNA). The levels of Ub-PCNA in the nucleus of cells was used to assess the activity of USP1. An immunofluorescence assay was established to monitor Ub-PCNA levels in the ovarian cancer cell line, ES2.
This assay was performed by first plating 5000 ES2 cells per well in black 96 well plates (Corning #3904) and then incubated overnight at 37° C. and 5% CO2. Compounds, resuspended in DMSO, were added to the cells, to a final DMSO concentration of 0.3%. Plates were incubated at 37° C. and 5% CO2 for 3 hours.
Cells were then fixed and stained by first removing the media from each plate and fixing the cells with −20° C. methanol for 5 minutes at room temperature. Following fixation plates were washed with Tris buffered saline with tween (Boston Bioproducts ABB-855) 5 times for 5 minutes each. Plates were blocked for 1 hour with 50μ.1 of Odyssey blocking buffer (Licor #327-50000) at room temperature with rocking. […]

A short description of data set [2]: Liver microsomal metabolic stability, human liver microsomes (HLM). To be noted: human, liver microsomes. On the technique in general: Liver microsomes are vesicles of endoplasmic reticulum, rich in cytochrome P450 enzymes.
Data set [3] can be described thus: ADME solubility determination in PBS at pH 2.0 and pH 7.4. The note with it: phosphate buffered saline, 25 °C, thermodynamic from solid. Format: physicochemical. The essentials: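 Dried 10 mM DMSO stock residues taken up in PBS pH 7.4 or pH 2.0, shaken 24 h at 25° C. After centrifugation, supernatant quantified by LC-MS/MS against a standard of known concentration, with a dilution factor applied.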

Data set [4] can be described thus: Liver microsomal metabolic stability, rat liver microsomes (RLM). To be noted: rat, liver microsomes, t1/2 (min) in RLM, 1 μM compound, 1 mg/mL microsomes, NADPH.
Where [5] appears, read: pH 2, aqueous buffer, PBS pH 2.0, 25° C., read-out: Solubility at pH 2.0.
[6] abbreviates: pH 7.4, aqueous buffer, PBS pH 7.4, 25° C., read-out: Solubility at pH 7.4.

The structures appear in SMILES notation. Where two headings read alike, the source gives them in different places.

USP1/UAF1 enzyme, sequence (O94782 whole entry): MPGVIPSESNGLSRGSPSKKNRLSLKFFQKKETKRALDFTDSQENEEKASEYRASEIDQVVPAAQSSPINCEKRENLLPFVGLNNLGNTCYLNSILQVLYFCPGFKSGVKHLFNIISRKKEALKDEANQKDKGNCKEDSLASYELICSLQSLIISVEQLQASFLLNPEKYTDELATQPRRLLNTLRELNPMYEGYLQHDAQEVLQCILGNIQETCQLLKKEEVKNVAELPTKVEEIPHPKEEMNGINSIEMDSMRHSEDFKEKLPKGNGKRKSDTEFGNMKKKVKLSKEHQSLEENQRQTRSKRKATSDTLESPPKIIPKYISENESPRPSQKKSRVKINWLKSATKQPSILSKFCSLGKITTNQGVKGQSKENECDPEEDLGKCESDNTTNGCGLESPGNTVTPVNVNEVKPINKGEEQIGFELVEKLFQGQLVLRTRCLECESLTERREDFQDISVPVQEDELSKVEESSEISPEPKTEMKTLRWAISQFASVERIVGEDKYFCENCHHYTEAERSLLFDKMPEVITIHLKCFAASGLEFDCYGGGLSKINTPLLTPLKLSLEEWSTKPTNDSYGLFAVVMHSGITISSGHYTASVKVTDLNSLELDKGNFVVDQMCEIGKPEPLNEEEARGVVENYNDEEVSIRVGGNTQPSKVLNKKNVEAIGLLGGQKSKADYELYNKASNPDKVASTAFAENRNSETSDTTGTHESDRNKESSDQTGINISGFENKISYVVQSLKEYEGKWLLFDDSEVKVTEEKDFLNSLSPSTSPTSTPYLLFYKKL
USP1/UAF1 enzyme, sequence (Q8TAF3 whole entry partner): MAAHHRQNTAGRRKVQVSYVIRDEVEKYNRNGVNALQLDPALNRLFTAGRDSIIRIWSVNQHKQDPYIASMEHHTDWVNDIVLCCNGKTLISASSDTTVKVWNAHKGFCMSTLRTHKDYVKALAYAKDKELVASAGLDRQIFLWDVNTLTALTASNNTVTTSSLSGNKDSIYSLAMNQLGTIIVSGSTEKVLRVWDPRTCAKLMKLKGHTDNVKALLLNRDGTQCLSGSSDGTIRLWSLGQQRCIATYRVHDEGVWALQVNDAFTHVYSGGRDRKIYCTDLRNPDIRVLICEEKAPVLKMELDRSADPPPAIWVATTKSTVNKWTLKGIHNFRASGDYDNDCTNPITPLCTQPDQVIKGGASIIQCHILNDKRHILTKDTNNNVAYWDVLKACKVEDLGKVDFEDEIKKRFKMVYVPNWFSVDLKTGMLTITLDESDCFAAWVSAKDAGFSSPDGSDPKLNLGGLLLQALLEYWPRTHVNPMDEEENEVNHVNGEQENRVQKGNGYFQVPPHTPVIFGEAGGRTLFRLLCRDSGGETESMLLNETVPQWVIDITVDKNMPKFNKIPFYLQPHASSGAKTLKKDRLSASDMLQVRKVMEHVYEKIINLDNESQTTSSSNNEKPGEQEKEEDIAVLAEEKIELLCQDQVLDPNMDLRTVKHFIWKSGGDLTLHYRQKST

Regarding `Cc1cnn(C(C)C)c1-c1cc2n(n1)CCCN2Cc1ccc(-c2nc(C(F)(F)F)cn2C)c(F)c1` [Example 55], the IC50 (on USP1/UAF1 enzyme; in data set [1]) was less than 100 nM throughout. Besides, the half-life at 1 μM in data set [2] and in data set [4] was less than 25 min throughout. Further, the solubility at 24 h in data set [3] (setting [5]) was not below 10 µM; in data set [3] (setting [6]), less than 10 µM.

For `CCn1cc(C(F)(F)F)nc1-c1ccc([C@H](C)n2c(=O)ccn3nc(-c4c(OC)ncnc4C4CC4)cc23)cc1` [Example 336, (S)-2-(4-cyclopropyl-6-methoxypyrimidin-5-yl)-4-(1-(4-(1-ethyl-4-(trifluoromethyl)-1H-imidazol-2-yl)phenyl)ethyl)pyrazolo[1,5-a]pyrimidin-5(4H)-one], the IC50 (at USP1/UAF1 enzyme; in data set [1]) was less than 100 nM throughout. In addition, the half-life at 1 μM was less than 25 min in data set [2] and more than 25 min in data set [4]. The solubility at 24 h in data set [3] (setting [5]) was not below 10 µM; in data set [3] (setting [6]) it was less than 10 µM.

With `CCn1cc(C(F)(F)F)nc1-c1ccc(O[C@H]2CCCn3nc(-c4c(OC)ncnc4C4CC4)cc32)cc1F` (single isomer, unassigned) [Example 263], the IC50 (on USP1/UAF1 enzyme; in data set [1]) was less than 100 nM each time. The half-life at 1 μM in data set [2] and in data set [4] was more than 25 min each time. The solubility at 24 h in data set [3] (setting [5]) and in data set [3] (setting [6]) was less than 10 µM each time.

In the case of `Cc1cnn(C(C)C)c1-c1cc2n(n1)CCCN2Cc1ccc(-c2nc(C(F)(F)F)nn2C)cc1` [Example 53], the values for the IC50 (at USP1/UAF1 enzyme; in data set [1]) were less than 100 nM and 100 to 500 nM, respectively. The half-life at 1 μM in data set [2] and in data set [4] was less than 25 min throughout. Further, the solubility at 24 h in data set [3] (setting [5]) and in data set [3] (setting [6]) was less than 10 µM throughout.

As for `COc1ncnc(C2CC2)c1-c1nc2n(n1)CCC(=O)N2Cc1ccc(-c2nc(C(F)(F)F)cn2C)c(F)c1` [Example 170], the half-inhibitory concentration (IC50) (at USP1/UAF1 enzyme; in data set [1]) was less than 100 nM in each case. The half-life at 1 μM in data set [2] and in data set [4] was more than 25 min throughout. The solubility at 24 h in data set [3] (setting [5]) and in data set [3] (setting [6]) was not below 10 µM in each case.

For the compound `CCOc1cc(C(F)(F)F)nn1-c1ccc(CN2C(=O)CCn3nc(-c4c(Cl)cnn4C(C)C)cc32)cc1` [Example 115], the 50% inhibitory concentration (IC50) (at USP1/UAF1 enzyme; in data set [1]) was less than 100 nM in each case. The half-life at 1 μM in data set [2] and in data set [4] was more than 25 min in each case. In addition, the solubility at 24 h in data set [3] (setting [5]) and in data set [3] (setting [6]) was less than 10 µM throughout.

Take `COc1ncnc(C2CC2)c1-c1cc2n(n1)CCC(=O)N2Cc1ccc(-n2nc(C(F)(F)F)cc2C)c(F)c1` [Example 103]: the concentration for half-maximal inhibition (IC50) was less than 100 nM at USP1/UAF1 enzyme and 100 to 500 nM in data set [1]. Further, the half-life at 1 μM in data set [2] and in data set [4] was more than 25 min throughout. In addition, the solubility at 24 h in data set [3] (setting [5]) and in data set [3] (setting [6]) was less than 10 µM throughout.

In the case of `COc1ncnc(C2CC2)c1-c1nc2n(n1)CCC(=O)N2[C@H](C)c1ccc(-c2nc(C(F)(F)F)c(Br)n2C)cc1` [Example 206], the half-maximal inhibitory concentration (IC50) (on USP1/UAF1 enzyme; in data set [1]) was less than 100 nM each time. For the same compound, the half-life at 1 μM in data set [2] and in data set [4] was more than 25 min each time. The results for the solubility at 24 h in data set [3] (setting [5]) and in data set [3] (setting [6]) were not below 10 µM and less than 10 µM, respectively.

For `CCn1cc(C(F)(F)F)nc1-c1ccc(CC2c3cc(-c4c(Cl)cnn4C(C)C)nn3CCN2C)cc1` (stereo not drawn) [Example 360, 2-(4-chloro-1-isopropyl-1H-pyrazol-5-yl)-4-(4-(1-ethyl-4-(trifluoromethyl)-1H-imidazol-2-yl)benzyl)-5-methyl-4,5,6,7-tetrahydropyrazolo[1,5-α]pyrazine], the 50% inhibitory concentration (IC50) (at USP1/UAF1 enzyme; in data set [1]) was less than 100 nM each time. The half-life at 1 μM in data set [2] and in data set [4] was less than 25 min throughout. In addition, the solubility at 24 h in data set [3] (setting [5]) was not below 10 µM; in data set [3] (setting [6]) it was less than 10 µM.

In the case of `CC(C)n1ncc(Cl)c1-c1cc2n(n1)CCC(=O)N2Cc1ccc(-c2nc(C(F)(F)F)cn2CCF)cc1` [Example 79], the half-maximal inhibitory concentration (IC50) (on USP1/UAF1 enzyme; in data set [1]) was less than 100 nM each time. Further, the half-life at 1 μM in data set [2] and in data set [4] was more than 25 min in each case. Further, the solubility at 24 h in data set [3] (setting [5]) and in data set [3] (setting [6]) was less than 10 µM each time.

Regarding `CCn1cc(C(F)(F)F)nc1-c1ccc([C@H](C)N2C(=O)CCn3nc(-c4c(Cl)cnn4C(C)C)nc32)cc1F` [Example 181], the IC50 (on USP1/UAF1 enzyme; in data set [1]) was less than 100 nM each time. The results for the half-life at 1 μM in data set [2] and in data set [4] were less than 25 min and more than 25 min, respectively. For the same compound, the solubility at 24 h in data set [3] (setting [5]) and in data set [3] (setting [6]) was less than 10 µM each time.

As to `CCn1cc(Cl)nc1-c1ccc(CN2C(=O)CCn3nc(-c4c(Cl)cnn4C(C)C)cc32)cc1` [Example 118], the 50% inhibitory concentration (IC50) (on USP1/UAF1 enzyme; in data set [1]) was less than 100 nM in each case. Further, the half-life at 1 μM in data set [2] and in data set [4] was less than 25 min each time. The solubility at 24 h in data set [3] (setting [5]) and in data set [3] (setting [6]) was less than 10 µM throughout.

`CCn1cc(C(F)(F)F)nc1-c1ccc([C@@H](C)N2C(=O)CCn3nc(-c4c(Cl)cnn4C(C)C)nc32)cc1` [Example 194]: the concentration for half-maximal inhibition (IC50) (at USP1/UAF1 enzyme; in data set [1]) was less than 100 nM each time. The half-life at 1 μM in data set [2] and in data set [4] was less than 25 min throughout. Moreover, the solubility at 24 h in data set [3] (setting [5]) and in data set [3] (setting [6]) was less than 10 µM throughout.

For `Cc1cnn(C(C)C)c1-c1cc2n(n1)CCC(=O)N2Cc1ccc(-c2nc(C(F)(F)F)cn2C(C)C)cc1` [Example 73], the figures for the IC50 (on USP1/UAF1 enzyme; in data set [1]) were less than 100 nM and 100 to 500 nM, respectively. For the same compound, the half-life at 1 μM in data set [2] and in data set [4] was less than 25 min each time. Besides, the solubility at 24 h in data set [3] (setting [5]) and in data set [3] (setting [6]) was less than 10 µM in each case.

As to `COc1ccc(C(F)(F)F)nc1-c1ccc(CN2C(=O)CCn3nc(-c4c(Cl)cnn4C(C)C)cc32)cc1Cl` [Example 294], the concentration for half-maximal inhibition (IC50) (on USP1/UAF1 enzyme; in data set [1]) was less than 100 nM throughout. For the same compound, the values for the half-life at 1 μM in data set [2] and in data set [4] were more than 25 min and less than 25 min, respectively. For the same compound, the solubility at 24 h in data set [3] (setting [5]) and in data set [3] (setting [6]) was less than 10 µM each time.

Regarding `COc1ncnc(C2CC2)c1-c1nc2n(n1)CCC(=O)N2Cc1ccc(-c2nc(C(F)(F)F)cn2C(C)CF)cc1` (stereo not drawn) [Example 195], the IC50 on USP1/UAF1 enzyme was 100 to 500 nM; in data set [1], less than 100 nM. Also, the half-life at 1 μM in data set [2] and in data set [4] was more than 25 min in each case. Besides, the solubility at 24 h in data set [3] (setting [5]) and in data set [3] (setting [6]) was not below 10 µM in each case.
